The values that follow are results of earlier work, collected in patent publication EP1017727B1, “COMPOSITION AND PHARMACEUTICAL PREPARATION CONTAINING SAME FOR THE TREATMENT OF HERPES AND RELATED VIRAL INFECTIONS” (priority 1997, dated 1999).

The test system of the data set is HSV-1.

Converted amounts (≈) assume the structure as drawn.

For the compound `O=Cc1cc(O)c(O)c(O)c1` [gallic aldehyde], the “IC50 against HSV-1” value is 12.5 µg/mL (≈ 81.1 µM).

With geponin, the “IC50 against HSV-1” value was 25 µg/mL.
